Laboratory results published in ChEMBL document CHEMBL5726855, “Substituted benzylindazoles for use as Bub1 kinase inhibitors in the treatment of hyperproliferative diseases” (2019).

Molecular target: Mitotic checkpoint serine/threonine-protein kinase BUB1 (Homo sapiens, UniProt O43683)
Assay: To this end, 100-fold concentrated compound solutions (in DMSO) were previously prepared by serial dilution (1:3.4) of 2 mM stocks in a clear low volume 384-well source microtiter plate (Greiner Bio-One, Frickenhausen, Germany), from which 50 nl of compounds were transferred into a black low volume test microtiter plate from the same supplier. […] The resulting mixture (5 μl final volume) was incubated at 22° C. during 60 min., and the reaction was stopped by the addition of 5 μl of an aqueous EDTA-solution (50 mM EDTA, in 100 mM HEPES pH 7.5 and 0.2% (w/v) bovine serum albumin) which also contained the TR-FRET detection reagents (0.2 μM streptavidin-XL665 [Cisbio Bioassays, Codolet, France] and 1 nM anti-phosho-Serine antibody [Merck Millipore, cat. #35-001] and 0.4 nM LANCE EU-W1024 labeled anti-mouse IgG antibody [Perkin-Elmer, product no. AD0077, alternatively a Terbium-cryptate-labeled anti-mouse IgG antibody from Cisbio Bioassays can be used]). The stopped reaction mixture was further incubated 1 h at 22° C. in order to allow the formation of complexes between peptides and detection reagents. Subsequently, the amount of product was evaluated by measurement of the resonance energy transfer from the Eu-chelate-antlbody complex recognizing the Phosphoserlne residue to the streptavidin-XL665 bound to the biotin moiety of the peptide. […] IC50 values were calculated by fitting the normalized inhibition data to a 4-parameter logistic equation (Minimum, Maximum, IC50, Hill; Y=Max+(Min−Max)/(1+(X/IC50)Hill)) using a Bayer-proprietary analysis software.

Chain of Mitotic checkpoint serine/threonine-protein kinase BUB1 (O43683 whole entry): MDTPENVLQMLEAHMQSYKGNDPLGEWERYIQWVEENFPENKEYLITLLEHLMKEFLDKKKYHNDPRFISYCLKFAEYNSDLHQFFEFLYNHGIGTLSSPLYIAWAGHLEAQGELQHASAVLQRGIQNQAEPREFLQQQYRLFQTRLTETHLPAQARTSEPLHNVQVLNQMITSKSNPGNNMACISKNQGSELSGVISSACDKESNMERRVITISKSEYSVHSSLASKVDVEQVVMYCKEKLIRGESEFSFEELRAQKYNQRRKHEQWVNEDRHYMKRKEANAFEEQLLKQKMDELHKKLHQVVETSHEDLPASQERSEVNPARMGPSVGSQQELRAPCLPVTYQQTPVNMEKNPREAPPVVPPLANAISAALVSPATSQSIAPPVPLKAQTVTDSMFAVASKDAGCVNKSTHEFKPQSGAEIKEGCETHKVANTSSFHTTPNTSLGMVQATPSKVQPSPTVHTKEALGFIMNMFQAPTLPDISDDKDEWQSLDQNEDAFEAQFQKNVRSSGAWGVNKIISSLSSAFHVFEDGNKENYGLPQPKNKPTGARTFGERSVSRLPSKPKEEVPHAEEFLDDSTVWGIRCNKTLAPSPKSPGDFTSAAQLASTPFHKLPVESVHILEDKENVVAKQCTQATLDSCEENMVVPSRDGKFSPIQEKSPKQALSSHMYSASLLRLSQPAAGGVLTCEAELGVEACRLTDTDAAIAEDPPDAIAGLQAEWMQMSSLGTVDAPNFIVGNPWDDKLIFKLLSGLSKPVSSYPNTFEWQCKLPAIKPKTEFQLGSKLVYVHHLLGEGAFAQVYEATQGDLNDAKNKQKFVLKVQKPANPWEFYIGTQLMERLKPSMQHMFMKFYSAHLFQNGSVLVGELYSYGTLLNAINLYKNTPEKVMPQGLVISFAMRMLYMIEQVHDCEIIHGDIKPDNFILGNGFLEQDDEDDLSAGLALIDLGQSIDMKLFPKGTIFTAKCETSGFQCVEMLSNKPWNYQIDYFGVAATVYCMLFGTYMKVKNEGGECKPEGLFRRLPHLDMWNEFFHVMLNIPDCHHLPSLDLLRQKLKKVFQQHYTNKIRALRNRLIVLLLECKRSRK

Row | IC50 | SMILES
1 | 890 nM | COc1cnc(-c2nn(Cc3c(F)cc(F)cc3F)c3ccccc23)nc1N(Cc1c(F)cc(F)cc1F)c1ccncc1
2 | 3200 nM | COc1cnc(-c2nn(Cc3c(F)c(F)c(OCC(F)(F)F)c(F)c3F)c3ccccc23)nc1N(Cc1c(F)c(F)c(OCC(F)(F)F)c(F)c1F)c1ccncc1

The remaining lines, values behind:

Row | SMILES | IC50
3 | CCOc1cc(F)c(Cn2nc(-c3ncc(OCCSC)c(Nc4ccncc4)n3)c3ccccc32)c(F)c1 | 14 nM
4 | CCOc1cc(F)c(Cn2nc(-c3ncc(OCCOCCO)c(Nc4ccncc4)n3)c3ccccc32)c(F)c1 | 7.4 nM
5 | COc1cnc(-c2nn(Cc3ccc(C#N)cc3F)c3ccccc23)nc1N(Cc1ccc(C#N)cc1F)c1ccncc1 | 1100 nM
